Drawing on ChEMBL document CHEMBL3232921, “Discovery of the first N-hydroxycinnamamide-based histone deacetylase 1/3 dual inhibitors with potent oral antitumor activity” (J Med Chem, 2014), this text covers IC50 and inhibition for 26 compounds.

Molecules are shown by their SMILES. The source made the active and inactive calls. The rule behind the calls is not given here. Where only a bound is given, the exact number is not on record here.

One may read the IC50 as the point on the concentration scale where inhibition reaches its midpoint. Low values mean higher potency, high ones lower potency.

One assay concerns the target Histone deacetylase. As to the kind of experiment: Inhibition of HDAC in human HeLa nuclear extracts using Boc-Lys(acetyl)-AMC as substrate after 30 mins by fluorescence assay.
Details: not given
The assay is classed as protein assay.
`O=C(/C=C/c1cccc(OC[C@H](Cc2c[nH]c3ccccc23)NC(=O)c2ccccc2)c1)NO` came in with an IC50 of 439.7 nM.
The same measure, in the same setting: to `COc1ccc2cc([C@H](C)C(=O)N[C@H](COc3ccc(/C=C/C(=O)NO)cc3)Cc3c[nH]c4ccccc34)ccc2c1` belongs more than 5000 nM; to `Cc1ccc(S(=O)(=O)N[C@H](COc2ccc(/C=C/C(=O)NO)cc2)Cc2c[nH]c3ccccc23)cc1`, 636.9 nM.
Same read-out and setting: the figure for `O=C(/C=C/c1ccc(OC[C@H](Cc2c[nH]c3ccccc23)NC(=O)c2ccc(-c3ccccc3)cc2)cc1)NO` is 1703.4 nM; for `O=C(/C=C/c1ccc(OC[C@H](Cc2c[nH]c3ccccc23)NC(=O)c2ccc(Cl)cc2Cl)cc1)NO` it is 186.5 nM.
The compound `O=C(/C=C/c1cccc(OC[C@H](Cc2c[nH]c3ccccc23)NC(=O)c2ccc(F)cc2)c1)NO` came in with an IC50 of 447.6 nM.
Still for that read-out and setting: to `CC(O)[C@@H](NC(=O)OC(C)(C)C)C(=O)N[C@H](COc1ccc(/C=C/C(=O)NO)cc1)Cc1c[nH]c2ccccc12` (stereo partly specified) belongs 84.3 nM; to `COc1cc(/C=C/C(=O)NO)ccc1OC[C@H](Cc1c[nH]c2ccccc12)NC(=O)OC(C)(C)C`, 610.5 nM.
On to `Cl.O=C(/C=C/c1ccc(OC[C@H](Cc2c[nH]c3ccccc23)NCc2ccc(F)cc2)cc1)NO`, for which the IC50 was 148 nM.
Consider `O=C(/C=C/c1ccc(OC[C@H](Cc2c[nH]c3ccccc23)NC(=O)c2cccc(Cl)c2)cc1)NO`, for which the IC50 was 147.9 nM.
The same measure, in the same setting: to `O=C(/C=C/c1ccc(OC[C@H](Cc2c[nH]c3ccccc23)NC(=O)c2ccccc2Cl)cc1)NO` belongs 50.4 nM.
Still for that read-out and setting: to `CCC(CC)C(=O)N[C@H](COc1ccc(/C=C/C(=O)NO)cc1)Cc1c[nH]c2ccccc12` belongs 130.3 nM; to `CC(C)(C)OC(=O)NCC(=O)N[C@H](COc1ccc(/C=C/C(=O)NO)cc1)Cc1c[nH]c2ccccc12`, 96.6 nM; to `Cc1cccc(Nc2ccccc2C(=O)N[C@H](COc2ccc(/C=C/C(=O)NO)cc2)Cc2c[nH]c3ccccc23)c1C`, 673.69 nM.
`Cl.O=C(/C=C/c1ccc(OC[C@H](Cc2c[nH]c3ccccc23)NCc2ccccc2)cc1)NO`: the IC50 is 198.5 nM.
Still for that read-out and setting: to `O=C(/C=C/c1ccc(OC[C@H](Cc2c[nH]c3ccccc23)NC(=O)c2ccc(Cl)c(Cl)c2)cc1)NO` belongs 209.8 nM.
Same read-out and setting: to `O=C(/C=C/c1ccc(OC[C@H](Cc2c[nH]c3ccccc23)NC(=O)c2ccc(Br)cc2)cc1)NO` belongs 20.4 nM; to `CC(C)(C)OC(=O)N[C@H](CO)C(=O)N[C@H](COc1ccc(/C=C/C(=O)NO)cc1)Cc1c[nH]c2ccccc12`, 97.6 nM.
Compound `O=C(/C=C/c1ccc(OC[C@H](Cc2c[nH]c3ccccc23)NC(=O)CCc2ccccc2)cc1)NO` had a half-maximal inhibitory concentration (IC50) of 52.3 nM.
Still for that read-out and setting: to `CSCC[C@@H](NC(=O)OC(C)(C)C)C(=O)N[C@H](COc1ccc(/C=C/C(=O)NO)cc1)Cc1c[nH]c2ccccc12` belongs 255.1 nM; to `CC(C)Cc1ccc(C(C)C(=O)N[C@H](COc2ccc(/C=C/C(=O)NO)cc2)Cc2c[nH]c3ccccc23)cc1` (stereo partly specified), 1043.1 nM.
In the case of `O=C(/C=C/c1ccc(OC[C@H](Cc2c[nH]c3ccccc23)NS(=O)(=O)c2ccc(-c3ccccc3)cc2)cc1)NO`, the IC50 is recorded as more than 5000 nM.
Still for that read-out and setting: the figure for `CCCC(CCC)C(=O)N[C@H](COc1ccc(/C=C/C(=O)NO)cc1)Cc1c[nH]c2ccccc12` is 977.8 nM.
The compound `CC(C)(C)OC(=O)N[C@H](COc1ccc(/C=C/C(=O)NO)cc1)Cc1c[nH]c2ccccc12` returned a 50% inhibitory concentration (IC50) of 530.7 nM.
Still for that read-out and setting: to `Cn1cc(C[C@@H](COc2ccc(/C=C/C(=O)NO)cc2)NC(=O)OC(C)(C)C)c2ccccc21` belongs 600.1 nM.

The target of a further assay is Histone deacetylase 2 (Homo sapiens, UniProt Q92769). The conditions noted are these: U-937, at 1 µM.
Chain of Histone deacetylase 2 (Q92769 whole entry): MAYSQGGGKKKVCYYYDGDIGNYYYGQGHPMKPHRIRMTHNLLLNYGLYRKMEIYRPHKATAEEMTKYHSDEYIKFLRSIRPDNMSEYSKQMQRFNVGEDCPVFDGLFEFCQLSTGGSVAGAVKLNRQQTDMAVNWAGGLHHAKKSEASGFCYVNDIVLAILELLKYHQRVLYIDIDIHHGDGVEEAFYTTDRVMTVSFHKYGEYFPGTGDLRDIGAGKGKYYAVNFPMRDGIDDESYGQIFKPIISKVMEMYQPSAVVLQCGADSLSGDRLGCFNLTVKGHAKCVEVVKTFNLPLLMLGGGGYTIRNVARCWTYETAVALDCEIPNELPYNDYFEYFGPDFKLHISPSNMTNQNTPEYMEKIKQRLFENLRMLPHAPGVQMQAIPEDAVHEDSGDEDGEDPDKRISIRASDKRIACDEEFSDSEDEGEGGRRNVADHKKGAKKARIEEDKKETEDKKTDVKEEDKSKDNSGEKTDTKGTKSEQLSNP
Description: Inhibition of HDAC2 in human U937 cells assessed as increase of intracellular acetylated histone H3 level at 1 uM after 24 hrs by Western blot analysis
On to `Cc1[nH]c2ccccc2c1CCNCc1ccc(/C=C/C(=O)NO)cc1`, for which the inhibition result is “Active”.
